# Reference: patent publication US8426673B2, “Pathological animal model for pelvic pain syndrome” (Astellas Pharma, Inc., priority 2008, dated 2013)
# Read-outs that look alike come from different tables or passages of the source.
# B1: NGF: Mouse NGF 2.5S (Alomone Labs), nerve growth factor used as stimulative substance injected into the testes (protein, UniProt P01139 122-241, looked up)
# Beta-nerve growth factor: SSTHPVFHMGEFSVCDSVSVWVGDKTTATDIKGKEVTVLAEVNINNSVFRQYFFETKCRASNPVESGCRGIDSKHWNSYCTTTHTFVKALTTDEKQAAWRFIRIDTACVCVLSRKATRRG
# Legend:
# Male Wistar rats [1] = details: 1% acetic acid 1 ml/kg intra testicular; 30 to 60 min after injection; distilled water group 97±8%; p<0.05
# Description: All data was presented as mean and standard error of the mean. The unpaired parametric t-test was used to compare the two group. P<0.05 was considered statistically significant.
# Male Wistar rats [2] = experiment: Intra testicular injection of acetic acid-induced characteristic pain or discomfort behavior; format: in vivo, rat
# Experimental: (§1) Male Wistar rats aged 5 to 12 weeks (Charles River Japan) were used. Positions of the testes were confirmed by keeping the waist of each rat from the dorsal side, and a stimulative substance at a volume of 1 ml/kg was administered into the right and left testes using a syringe equipped with a 27 G needle.
# When the intra-testicular administration is achieved, the testes are swelled and become hard in touch. The individuals whose testes were not swelled after the injection were judged as failure in the injection and excluded from further analysis. In addition, dye mixed stimulative substance was injected into the testes and the distribution of the dye within the testes was checked after completion of the experiments to verify whether a stimulative substance was successfully administered or not.
# All data was presented as mean and standard error of the mean. The unpaired parametric t-test was used to compare the two group. The parametric Dunnett's multiple comparison test was performed to compare the three groups or more. P<0.05 was considered statistically significant.
# (1) Dose-dependency of acetic acid: A rat was placed individually in a clear, round, plastic container (Natsume, Japan) for observation immediately after the intra testicular injection of 0.3, 1 and 3% acetic acid aqueous solutions or distilled water. […] Among these behaviors, the number of behaviors 1) to 3), frequently observed behavior, was counted from 5 to 20 minutes after the intra testicular injection of acetic acid.
# (2) Effects of indomethacin: Indomethacin at 5 mg/3 mL/kg (Sigma-Aldrich Japan, Japan) or 0.1% Na2CO3 aqueous solution (vehicle solution) was orally administered 1 hour before the intra testicular injection of 1% acetic acid. Number of the characteristic pain or discomfort behavior was measured in the same manner as described in the above section.
# Male Wistar rats [3] = experiment: Intra testicular injection of NGF-induced pain or discomfort behavior; format: in vivo, rat; details: 10 to 30 minutes after injection, p<0.01
# Experimental: as §1
# When the intra-testicular administration is achieved, the testes are swelled and become hard in touch. The individuals whose testes were not swelled after the injection were judged as failure in the injection and excluded from further analysis. […]
# (1) Dose dependency of NGF: Mouse NGF 2.5S (Alomone Labs, Ltd., Israel) at […] or saline (vehicle solution) was administered to both of the testes in rat. […] Thus, the total time the behavior of 1) was measured by a stopwatch from 10 to 30 minutes after the intra testicular injection.
# (2) Effects of morphine: Morphine (Takeda Chemical Industry, Ltd., Japan) at 5 mg/kg or saline (vehicle solution) was subcutaneously administered 30 minutes before the intra testicular injection of 100 μg/kg NGF. Total time of the above mentioned characteristic pain or discomfort behavior was measured from 10 to 30 minutes after the intra testicular injection of NGF. […]
# Male Wistar rats [4] = experiment: Effects of intra testicular injection of NGF on bladder capacity (conscious cystometry); format: in vivo, rat; details: 100 μg/kg NGF (1 ml/kg) intra testicular; 30 to 60 min after injection; saline group 104±14%; p<0.01
# Experimental: P<0.05 was considered statistically significant.
# After that, “pre bladder capacity” was recorded for 1 hr. […] Physiological saline (1 ml/kg) or 100 μg/kg NGF (1 ml/kg) were injected into the testes. […] The bladder capacity in the saline treated group was 104±14%, thus showing no significant change. […] This change was significant in comparison with that of physiological saline treated group (FIG. 6).
molecule,measurement,setting,value
CC(=O)O [acetic acid],"bladder capacity, percent of the pre bladder capacity",Male Wistar rats [1],53±12%
same,characteristic pain or discomfort behaviors,"Male Wistar rats [2]; 0.3% acetic acid aqueous solution, 1 ml/kg intra testicular, 5 to 20 minutes after injection, rat",No characteristic pain or discomfort behaviors was observed
same,number of pain or discomfort behaviors,"Male Wistar rats [2]; 1% acetic acid aqueous solution, 1 ml/kg intra testicular; behaviors 1) to 3) counted 5 to 20 minutes after injection, rat",16±2 times
same,number of pain or discomfort behaviors,"Male Wistar rats [2]; 3% acetic acid aqueous solution, 1 ml/kg intra testicular; behaviors 1) to 3) counted 5 to 20 minutes after injection, rat",19±6 times
"CN1CC[C@]23c4c5ccc(O)c4O[C@H]2[C@@H](O)C=C[C@H]3[C@H]1C5 [morphine, Morphine]",total time of the characteristic pain or discomfort behavior,"Male Wistar rats [3]; 5 mg/kg subcutaneously 30 minutes before intra testicular 100 μg/kg NGF, vehicle group 167±31 seconds",9 ± 4 s
"COc1ccc2c(c1)c(CC(=O)O)c(C)n2C(=O)c1ccc(Cl)cc1 [indomethacin, Indomethacin]",number of the characteristic pain or discomfort behaviors,"Male Wistar rats [2]; 5 mg/3 mL/kg orally 1 hour before intra testicular 1% acetic acid, counted 5 to 20 minutes, vehicle group 19±6 times, p<0.01",3±2 times
B1,total time of the characteristic pain or discomfort behavior (scratching the body vigorously with hindlimbs),"Male Wistar rats [3]; 100 μg/ml/kg NGF intra testicular, vehicle group 1.0±0.4 second",155 ± 29 s
same,"bladder capacity, percent of the pre bladder capacity",Male Wistar rats [4],29±9%
